Results from the NIST ThermoML archive (doi:10.1016/j.jct.2014.01.030).

Assay: xn = mol fraction of the nth substance listed
Conditions: 101 kPa, Liquid; for speed of sound: Sing-around technique in a fixed-path interferometer; for mass density: Vibrating tube method

CCn1cc[n+](C)c1.COS(=O)(=O)[O-] [1-ethyl-3-methylimidazolium methylsulfate] + CCCCCO
Conditions	mass density, 288.15 K [kg/m3]	mass density, 298.15 K [kg/m3]	mass density, 308.15 K [kg/m3]	speed of sound, 288.15 K [m/s]	speed of sound, 298.15 K [m/s]	speed of sound, 308.15 K [m/s]
x2 = 0	1287.57	1280.81	1273.97	1781	1756	1732
x2 = 0.057	1271.79	1264.9	1258.06	1759	1734	1710
x2 = 0.113	1255.1	1248.21	1241.74	1733	1708	1684
x2 = 0.216	1221.14	1214.5	1207.89	1678	1652	1628
x2 = 0.306	1188.62	1181.87	1175.24	1627	1600	1576
x2 = 0.404	1150.41	1143.48	1136.6	1569	1544	1519
x2 = 0.51	1104.6	1097.6	1090.68	1511	1485	1459
x2 = 0.608	1058.29	1051.16	1043.98	1463	1435	1408
x2 = 0.716	1001.72	994.56	987.39	1413	1385	1357
x2 = 0.801	952.72	945.38	938.08	1378	1349	1320
x2 = 0.9	889.67	882.45	875.19	1342	1311	1280
x2 = 0.956	851	843.78	836.48	1325	1292	1260

CCn1cc[n+](C)c1.COS(=O)(=O)[O-] [1-ethyl-3-methylimidazolium methylsulfate] + CCCO
Conditions	mass density, 288.15 K [kg/m3]	mass density, 298.15 K [kg/m3]	mass density, 308.15 K [kg/m3]	speed of sound, 288.15 K [m/s]	speed of sound, 298.15 K [m/s]	speed of sound, 308.15 K [m/s]
x2 = 0	1287.57	1280.81	1273.97	1781	1756	1732
x2 = 0.055	1277.08	1270.16	1263.29	1765	1741	1717
x2 = 0.104	1266.71	1259.77	1252.89	1750	1725	1701
x2 = 0.21	1241.65	1234.68	1227.75	1712	1687	1662
x2 = 0.307	1215.18	1208.16	1201.19	1671	1645	1620
x2 = 0.414	1181.08	1174.01	1166.97	1617	1592	1567
x2 = 0.519	1141.11	1133.94	1126.8	1559	1533	1507
x2 = 0.62	1095.52	1088.26	1081.02	1498	1471	1445
x2 = 0.718	1042.21	1034.8	1027.38	1435	1407	1380
x2 = 0.81	981.73	974.16	966.57	1373	1344	1315
x2 = 0.907	903.61	895.88	888.1	1307	1276	1245
x2 = 0.954	858.4	850.58	842.66	1276	1243	1211

CCn1cc[n+](C)c1.COS(=O)(=O)[O-] [1-ethyl-3-methylimidazolium methylsulfate] + CCC(C)O
Conditions	mass density, 288.15 K [kg/m3]	mass density, 298.15 K [kg/m3]	mass density, 308.15 K [kg/m3]	speed of sound, 288.15 K [m/s]	speed of sound, 298.15 K [m/s]	speed of sound, 308.15 K [m/s]
x2 = 0	1287.57	1280.81	1273.97	1781	1756	1732
x2 = 0.054	1274.82	1267.9	1261.04	1762	1738	1714
x2 = 0.106	1261.26	1254.37	1247.52	1743	1718	1693
x2 = 0.204	1233.86	1226.94	1220.05	1698	1673	1649
x2 = 0.306	1201.1	1194.21	1187.37	1644	1619	1594
x2 = 0.405	1165.21	1158.22	1151.25	1587	1562	1536
x2 = 0.507	1122.93	1115.87	1108.83	1527	1501	1475
x2 = 0.608	1075.89	1068.69	1061.49	1467	1440	1414
x2 = 0.713	1019.51	1012.15	1004.76	1406	1378	1350
x2 = 0.801	964.94	957.44	949.85	1356	1326	1297
x2 = 0.905	890.81	883.1	875.21	1299	1267	1235
x2 = 0.948	856.61	848.81	840.73	1277	1244	1210

CCn1cc[n+](C)c1.COS(=O)(=O)[O-] [1-ethyl-3-methylimidazolium methylsulfate] + CC(C)O
Conditions	mass density, 288.15 K [kg/m3]	mass density, 298.15 K [kg/m3]	mass density, 308.15 K [kg/m3]	speed of sound, 288.15 K [m/s]	speed of sound, 298.15 K [m/s]	speed of sound, 308.15 K [m/s]
x2 = 0	1287.57	1280.81	1273.97	1781	1756	1732
x2 = 0.049	1277.61	1270.72	1263.87	1766	1741	1717
x2 = 0.101	1266.36	1259.44	1252.56	1749	1724	1700
x2 = 0.205	1240.88	1233.92	1227.01	1708	1683	1658
x2 = 0.307	1212.09	1205.09	1198.13	1659	1634	1609
x2 = 0.388	1185.23	1178.18	1171.15	1614	1588	1564
x2 = 0.505	1140.35	1133.21	1126.08	1541	1515	1490
x2 = 0.611	1091.15	1083.89	1076.62	1469	1443	1416
x2 = 0.705	1039.05	1031.61	1024.15	1402	1375	1348
x2 = 0.805	972.17	964.55	956.84	1326	1298	1269
x2 = 0.902	891.92	884.06	876.06	1252	1221	1190
x2 = 0.953	842.51	834.48	826.24	1214	1181	1148

CCn1cc[n+](C)c1.COS(=O)(=O)[O-] [1-ethyl-3-methylimidazolium methylsulfate] + CCO
Conditions	mass density, 288.15 K [kg/m3]	mass density, 298.15 K [kg/m3]	mass density, 308.15 K [kg/m3]	speed of sound, 288.15 K [m/s]	speed of sound, 298.15 K [m/s]	speed of sound, 308.15 K [m/s]
x2 = 0	1287.57	1280.81	1273.97	1781	1756	1732
x2 = 0.05	–	1273.01	1266.14	–	1744	1720
x2 = 0.0501	1279.94	–	–	1769	–	–
x2 = 0.1018	1271.31	–	–	1756	–	–
x2 = 0.102	–	1264.42	1257.55	–	1731	1707
x2 = 0.197	–	1246.51	1239.58	–	1704	1679
x2 = 0.1972	1253.48	–	–	1728	–	–
x2 = 0.3098	1228.51	–	–	1690	–	–
x2 = 0.31	–	1221.47	1214.47	–	1665	1640
x2 = 0.391	–	1199.39	1192.33	–	1630	1605
x2 = 0.3913	1206.5	–	–	1656	–	–
x2 = 0.503	1170.26	1163.02	1155.75	1600	1574	1549
x2 = 0.6129	1125.74	–	–	1532	–	–
x2 = 0.613	–	1118.41	1111.08	–	1506	1480
x2 = 0.703	–	1071.36	1063.86	–	1440	1413
x2 = 0.7031	1078.87	–	–	1467	–	–
x2 = 0.8087	1007.23	–	–	1376	–	–
x2 = 0.809	–	999.5	991.73	–	1348	1321
x2 = 0.901	–	914.27	906.19	–	1256	1226
x2 = 0.9011	922.29	–	–	1286	–	–
x2 = 0.948	–	859.57	851.28	–	1206	1175
x2 = 0.9482	867.78	–	–	1238	–	–

CCn1cc[n+](C)c1.COS(=O)(=O)[O-] [1-ethyl-3-methylimidazolium methylsulfate] + CO
Conditions	mass density, 288.15 K [kg/m3]	mass density, 298.15 K [kg/m3]	mass density, 308.15 K [kg/m3]	speed of sound, 288.15 K [m/s]	speed of sound, 298.15 K [m/s]	speed of sound, 308.15 K [m/s]
x2 = 0	1287.57	1280.81	1273.97	1781	1756	1732
x2 = 0.0515	1282.18	1275.24	1268.37	1772	1748	1724
x2 = 0.1025	1276.36	1269.42	1262.52	1763	1739	1715
x2 = 0.1919	1265.13	1258.14	1251.2	1747	1722	1698
x2 = 0.3013	1247.5	1240.45	1233.43	1720	1695	1670
x2 = 0.4032	1227.98	1220.84	1213.74	1690	1665	1640
x2 = 0.5038	1203.27	1196.01	1188.8	1653	1628	1602
x2 = 0.604	1170.7	1163.31	1155.94	1605	1578	1553
x2 = 0.7023	1127.32	1119.71	1112.12	1541	1514	1487
x2 = 0.8003	1065.67	1057.76	1049.86	1452	1424	1397
x2 = 0.9049	962.26	953.82	945.37	1316	1286	1258
x2 = 0.9515	893.83	885.04	876.21	1237	1206	1176
